Where two headings read alike, the source gives them in different places.
How the values were obtained:
monocytes = test: Lipopolysaccharide-activated monocyte TNF production assay (LPS induced TNF release); format: cell-based, human; settings: LPS induced TNF release from monocytes, read-out: LPS induced TNFa
Method in brief: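 Adherent monocytes from human PBMCs were pretreated with compound 60 min, then stimulated with E. coli LPS (30 ng/mL stock added) for 4 h at 37 °C. Supernatant TNF-α measured by sandwich ELISA; concentration giving 50% TNF reduction derived by polynomial fit.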

THP1 cells = test: Lipopolysaccharide-activated THP1 cell TNF production assay; format: cell-based, human; settings: LPS-induced TNF-α production in THP1 cells
Method in brief: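 THP1 cells at 1E6/mL were stimulated with LPS (1 μg/mL prepared stock) alongside 3-fold serially diluted compound for 3 h at 37 °C. Secreted TNF-α was quantified by electrochemiluminescence sandwich immunoassay. Percent of DMSO control was fitted to a 4-parameter logistic equation.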

p38α = p38α (Homo sapiens, UniProt Q16539); test: p38 in-vitro HTRF enzyme assay; format: biochemical; settings: IC50 value ranges
Method in brief: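 Activated recombinant human p38α with ATP and 100 nM GST-ATF2-Avitag, 1 h at RT in Tris pH 7.5/MgCl2 buffer; compound 10-point 3-fold series from about 1 μM final. HTRF 665/620 nm ratio; IC50 from 4-parameter fit, Ki via Cheng-Prusoff with experimental ATP Km.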

p38α, sequence (Q16539 whole entry): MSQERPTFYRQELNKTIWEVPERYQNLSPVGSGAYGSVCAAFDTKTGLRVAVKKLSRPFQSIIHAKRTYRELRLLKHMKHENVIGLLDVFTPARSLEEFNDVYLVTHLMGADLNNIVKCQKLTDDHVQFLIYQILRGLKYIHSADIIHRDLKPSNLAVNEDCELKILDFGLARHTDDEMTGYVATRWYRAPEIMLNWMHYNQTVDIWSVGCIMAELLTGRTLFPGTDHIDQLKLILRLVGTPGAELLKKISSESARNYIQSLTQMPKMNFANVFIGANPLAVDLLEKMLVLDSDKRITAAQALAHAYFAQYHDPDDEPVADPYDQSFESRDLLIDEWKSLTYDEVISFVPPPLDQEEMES

Molecule	IC50 (monocytes; Homo sapiens, Monocyte)	IC50 (THP1 cells; Homo sapiens, THP-1)	IC50 (p38α)	IC50 (monocytes)	IC50 (THP1 cells; read-out: THP-1 cell assay)
Cc1ccc(C(=O)NC2CC2)cc1-c1ccn2c(C3CC3)nnc2c1 [Example 93, N-cyclopropyl-3-(3-cyclopropyl[1,2,4]triazolo[4,3-a]pyridin-7-yl)-4-methylbenzamide]	100 to 250 nM	25 to 100 nM	< 25 nM	–	–
Cc1ccc(C(=O)NC2CC2)cc1-c1ccn2c(-c3sccc3C)nnc2c1 [Example 53, N-cyclopropyl-4-methyl-3-(3-(3-methyl-2-thienyl)[1,2,4]triazolo[4,3-a]pyridin-7-yl)benzamide]	25 to 100 nM	25 to 100 nM	< 25 nM	–	–
Cc1ccc(C(=O)NC2CC2)cc1-c1ccn2c(-c3cc(F)c(F)cc3Cl)nnc2c1 [Example 48, 3-(3-(2-chloro-4,5-difluorophenyl)[1,2,4]triazolo[4,3-a]pyridin-7-yl)-N-cyclopropyl-4-methylbenzamide]	100 to 250 nM	100 to 250 nM	< 25 nM	–	–
Cc1ccc(C(=O)NC2CC2)cc1-c1ccn2c(-c3ccccc3Cl)nnc2c1 [Example 10, 3-(3-(2-chlorophenyl)[1,2,4]triazolo[4,3-a]pyridin-7-yl)-N-cyclopropyl-4-methylbenzamide]	25 to 100 nM	< 25 nM	< 25 nM	–	–
Cc1ccc(C(=O)NC2CC2)cc1-c1ccn2c(-c3ccccc3C(F)(F)F)nnc2c1 [Example 104, N-cyclopropyl-4-methyl-3-(3-(2-(trifluoromethyl)phenyl)[1,2,4]triazolo[4,3-a]pyridin-7-yl)benzamide]	100 to 250 nM	25 to 100 nM	< 25 nM	–	–
Cc1ccc(C(=O)NC2CC2)cc1-c1ccn2c(NC(C)C)nnc2c1 [Example 7, N-cyclopropyl-4-methyl-3-(3-((1-methylethyl)amino)[1,2,4]triazolo[4,3-a]pyridin-7-yl)benzamide]	100 to 250 nM	100 to 250 nM	< 25 nM	–	–
Cc1ccc(C(=O)Nc2ccnn2C)cc1-c1ccn2c(-c3sccc3C)nnc2c1 [Example 54, 4-methyl-N-(1-methyl-1H-pyrazol-5-yl)-3-(3-(3-methyl-2-thienyl)[1,2,4]triazolo[4,3-a]pyridin-7-yl)benzamide]	25 to 100 nM	< 25 nM	< 25 nM	–	–
Cc1ccc(C(=O)NC2(C)CC2)cc1-c1ccn2c(-c3ccc(S(C)(=O)=O)cc3)nnc2c1 [Example 13, 4-methyl-N-(1-methylcyclopropyl)-3-(3-(4-(methylsulfonyl)phenyl)[1,2,4]triazolo[4,3-a]pyridin-7-yl)benzamide]	250 to 1000 nM	250 to 1000 nM	25 to 100 nM	–	–
Cc1ccc(C(=O)NC2(C)CC2)cc1-c1ccn2c(-c3ccc(F)cc3C)nnc2c1 [Example 16, 3-(3-(4-fluoro-2-methylphenyl)[1,2,4]triazolo[4,3-a]pyridin-7-yl)-4-methyl-N-(1-methylcyclopropyl)benzamide]	100 to 250 nM	100 to 250 nM	25 to 100 nM	–	–
Cc1c(F)cc(C(=O)NC2CC2)cc1-c1ccn2c(-c3c(F)cccc3Cl)nnc2c1 [Example 56, 3-(3-(2-chloro-6-fluorophenyl)[1,2,4]triazolo[4,3-a]pyridin-7-yl)-N-cyclopropyl-5-fluoro-4-methylbenzamide]	< 25 nM	< 25 nM	< 25 nM	–	–
4-methyl-3-(3-(4-methyl-1,3-oxazol-5-yl)[1,2,4]triazolo[4,3-a]pyridin-7-yl)-N-(1-methyl-1H-pyrazol-5-yl)benzamide [Example 58]	–	–	25 to 100 nM	250 to 1000 nM	250 to 1000 nM
Cc1ccc(C(=O)NC2CC2)cc1-c1ccn2c(-c3cccnc3C)nnc2c1 [Example 34, N-cyclopropyl-4-methyl-3-(3-(2-methyl-3-pyridinyl)[1,2,4]triazolo[4,3-a]pyridin-7-yl)benzamide]	100 to 250 nM	25 to 100 nM	25 to 100 nM	–	–
Cc1ccc(C(=O)NC2CC2)cc1-c1ccn2c(-c3cccnc3)nnc2c1 [Example 29, N-cyclopropyl-4-methyl-3-(3-(3-pyridinyl)[1,2,4]triazolo[4,3-a]pyridin-7-yl)benzamide]	100 to 250 nM	100 to 250 nM	100 to 250 nM	–	–
Cc1c(F)cc(C(=O)NC2CC2)cc1-c1ccn2c(-c3c(Cl)cccc3Cl)nnc2c1 [Example 59, N-cyclopropyl-3-(3-(2,6-dichlorophenyl)[1,2,4]triazolo[4,3-a]pyridin-7-yl)-5-fluoro-4-methylbenzamide]	< 25 nM	< 25 nM	< 25 nM	–	–
Cc1ccc(C(=O)Nc2ccnn2C)cc1-c1ccn2c(-c3cccnc3C)nnc2c1 [Example 33, 4-methyl-N-(1-methyl-1H-pyrazol-5-yl)-3-(3-(2-methyl-3-pyridinyl)[1,2,4]triazolo[4,3-a]pyridin-7-yl)benzamide]	250 to 1000 nM	100 to 250 nM	25 to 100 nM	–	–
Cc1ccc(C(=O)NC2CC2)cc1-c1ccn2c(N3CCOCC3)nnc2c1 [Example 101, N-cyclopropyl-4-methyl-3-(3-(4-morpholinyl)[1,2,4]triazolo[4,3-a]pyridin-7-yl)benzamide]	100 to 250 nM	100 to 250 nM	25 to 100 nM	–	–
Cc1ccc(C(=O)NC2CC2)cc1-c1ccn2c(-c3cccc(S(C)(=O)=O)c3)nnc2c1 [Example 18, N-cyclopropyl-4-methyl-3-(3-(3-(methylsulfonyl)phenyl)[1,2,4]triazolo[4,3-a]pyridin-7-yl)benzamide]	100 to 250 nM	250 to 1000 nM	25 to 100 nM	–	–
Cc1cccc(Cl)c1-c1nnc2cc(-c3cc(C(=O)NC4CC4)cc(F)c3C)ccn12 [Example 91, 3-(3-(2-chloro-6-methylphenyl)[1,2,4]triazolo[4,3-a]pyridin-7-yl)-N-cyclopropyl-5-fluoro-4-methylbenzamide]	< 25 nM	< 25 nM	< 25 nM	–	–
Cc1c(F)cc(C(=O)NC2CC2)cc1-c1ccn2c(-c3c(F)cccc3F)nnc2c1 [Example 64, N-cyclopropyl-3-(3-(2,6-difluorophenyl)[1,2,4]triazolo[4,3-a]pyridin-7-yl)-5-fluoro-4-methylbenzamide]	< 25 nM	< 25 nM	< 25 nM	–	–
Cc1ccc(C(=O)Nc2ccnn2C)cc1-c1ccn2c(C(C)C)nnc2c1 [Example 28, 4-methyl-3-(3-(1-methylethyl)[1,2,4]triazolo[4,3-a]pyridin-7-yl)-N-(1-methyl-1H-pyrazol-5-yl)benzamide]	100 to 250 nM	100 to 250 nM	< 25 nM	–	–
Cc1c(F)cc(C(=O)NC2CC2)cc1-c1ccn2c(-c3ccccc3C(F)(F)F)nnc2c1 [Example 74, N-cyclopropyl-3-fluoro-4-methyl-5-(3-(2-(trifluoromethyl)phenyl)[1,2,4]triazolo[4,3-a]pyridin-7-yl)benzamide]	< 25 nM	< 25 nM	< 25 nM	–	–

Source: patent publication US7700593B2, “Imidazo- and triazolo-pyridine compounds and methods of use thereof” (Amgen Inc., priority 2006, dated 2010)
